Measurements published in patent US20060252807A1, “Novel ortho-terphenyl inhibitors of p38 kinase and methods of treating inflammatory disorders” (Kalypsys, Inc., priority 2005, published 2006).

Target: T1, active p38 alpha enzyme (Upstate Biotechnology) (Homo sapiens, UniProt Q16539)
T1 construct: purchased Upstate Biotechnology
Test: p38α biochemical assay (ATP turnover, luminescent detection, Cambrex PKlight)
Settings: p38α biochemical assay, Table 1 Biological Activity
Procedure, shortened: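 Measures total ATP turnover by luminescence after human p38α phosphorylates full MapkapK2 protein. Final ATP is 1.4 uM, and incubation runs 2 hours at 30C. The buffer includes 100 mM MgCl2, 4 mM CaCl2 and 1 mg/ml BSA.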

T1 sequence (Q16539 whole entry): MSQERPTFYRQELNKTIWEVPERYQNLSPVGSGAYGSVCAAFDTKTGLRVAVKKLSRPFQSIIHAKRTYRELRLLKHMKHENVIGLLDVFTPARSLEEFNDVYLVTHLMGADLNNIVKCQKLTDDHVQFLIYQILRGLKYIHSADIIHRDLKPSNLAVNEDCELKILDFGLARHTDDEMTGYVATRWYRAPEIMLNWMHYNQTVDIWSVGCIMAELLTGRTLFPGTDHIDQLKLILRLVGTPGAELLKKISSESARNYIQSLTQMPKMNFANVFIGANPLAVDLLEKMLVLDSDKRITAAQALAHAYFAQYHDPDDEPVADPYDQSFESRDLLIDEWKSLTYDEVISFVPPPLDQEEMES

IC50 [µM]	SMILES
> 1	CC(C)NC(=O)c1csc(-c2oc(CN3CCN(C(=O)/C=C/c4ccccc4F)CC3)nc2-c2ccc(F)cc2)n1 [Example 415]
> 1	CCOc1ccccc1C(=O)N1CCN(Cc2nc(-c3ccc(F)cc3)c(-c3nc(C(=O)NC(C)C)cs3)o2)CC1 [Example 416]
> 1	Cc1ccccc1OCC(=O)N1CCN(Cc2nc(-c3ccc(F)cc3)c(-c3nc(C(=O)NC(C)C)cs3)o2)CC1 [Example 417]
≤ 1	CC(C)NC(=O)c1csc(-c2oc(CN3CCN(C(=O)CCc4ccccc4O)CC3)nc2-c2ccc(F)cc2)n1 [Example 418]
≤ 1	COc1ccccc1CC(=O)N1CCN(Cc2nc(-c3ccc(F)cc3)c(-c3nc(C(=O)NC(C)C)cs3)o2)CC1 [Example 419]
> 1	CC(C)NC(=O)c1csc(-c2oc(CN3CCN(C(=O)C(C)c4ccc(O)cc4)CC3)nc2-c2ccc(F)cc2)n1 (centres unmarked) [Example 420]
> 1	CC(C)NC(=O)c1csc(-c2oc(CN3CCN(C(=O)c4ccccc4[N+](=O)[O-])CC3)nc2-c2ccc(F)cc2)n1 [Example 421]
> 1	CC(C)NC(=O)c1csc(-c2oc(CN3CCN(C(=O)c4cccc([N+](=O)[O-])c4)CC3)nc2-c2ccc(F)cc2)n1 [Example 422]
≤ 1	COc1cccc(O)c1C(=O)N1CCN(Cc2nc(-c3ccc(F)cc3)c(-c3nc(C(=O)NC(C)C)cs3)o2)CC1 [Example 423]
≤ 1	COc1ccc(O)c(C(=O)N2CCN(Cc3nc(-c4ccc(F)cc4)c(-c4nc(C(=O)NC(C)C)cs4)o3)CC2)c1 [Example 424]
≤ 1	COc1ccc(C(=O)N2CCN(Cc3nc(-c4ccc(F)cc4)c(-c4nc(C(=O)NC(C)C)cs4)o3)CC2)c(O)c1 [Example 425]
≤ 1	COc1ccc(C(=O)N2CCN(Cc3nc(-c4ccc(F)cc4)c(-c4nc(C(=O)NC(C)C)cs4)o3)CC2)cc1O [Example 426]
≤ 1	CC(C)NC(=O)c1csc(-c2oc(CN3CCN(C(=O)c4cc(O)c(O)c(O)c4)CC3)nc2-c2ccc(F)cc2)n1 [Example 427]
≤ 1	CC(C)NC(=O)c1csc(-c2oc(CN3CCN(C(=O)Cc4ccc(O)c(F)c4)CC3)nc2-c2ccc(F)cc2)n1 [Example 428]
> 1	Cc1cc(C(=O)N2CCN(Cc3nc(-c4ccc(F)cc4)c(-c4nc(C(=O)NC(C)C)cs4)o3)CC2)cc(Cl)n1 [Example 429]
> 1	CC(C)NC(=O)c1csc(-c2oc(CN3CCN(C(=O)Cc4c(F)cccc4F)CC3)nc2-c2ccc(F)cc2)n1 [Example 430]
≤ 1	CC(C)NC(=O)c1csc(-c2oc(CN3CCN(C(=O)c4cccc5ccccc45)CC3)nc2-c2ccc(F)cc2)n1 [Example 431]
≤ 1	CC(C)NC(=O)c1csc(-c2oc(CN3CCN(C(=O)c4ccc(Cl)cc4O)CC3)nc2-c2ccc(F)cc2)n1 [Example 432]
≤ 1	CC(C)NC(=O)c1csc(-c2oc(CN3CCN(C(=O)c4cc(Cl)ccc4O)CC3)nc2-c2ccc(F)cc2)n1 [Example 433]
≤ 1	CC(C)NC(=O)c1csc(-c2oc(CN3CCN(C(=O)c4ccc5ncccc5c4)CC3)nc2-c2ccc(F)cc2)n1 [Example 434]
≤ 1	CC(C)NC(=O)c1csc(-c2oc(CN3CCN(C(=O)c4cnc(O)c(Cl)c4)CC3)nc2-c2ccc(F)cc2)n1 [Example 435]
> 1	CC(C)NC(=O)c1csc(-c2oc(CN3CCN(C(=O)c4ccc(F)cc4Cl)CC3)nc2-c2ccc(F)cc2)n1 [Example 436]
> 1	CC(C)NC(=O)c1csc(-c2oc(CN3CCN(C(=O)c4c(F)cccc4Cl)CC3)nc2-c2ccc(F)cc2)n1 [Example 437]
> 1	CC(C)NC(=O)c1csc(-c2oc(CN3CCN(C(=O)CNC(=O)OC(C)(C)C)CC3)nc2-c2ccc(F)cc2)n1 [Example 438]
> 1	Cc1c(C(=O)N2CCN(Cc3nc(-c4ccc(F)cc4)c(-c4nc(C(=O)NC(C)C)cs4)o3)CC2)oc2ccccc12 [Example 439]
≤ 1	CC(C)NC(=O)c1csc(-c2oc(CN3CCN(C(=O)CC4Cc5ccccc5C4)CC3)nc2-c2ccc(F)cc2)n1 [Example 440]
